Results: patent US20160129011A1, “BICYCLO 2,3-BENZODIAZEPINES AND SPIROCYCLICALLY SUBSTITUTED 2,3-BENZODIAZEPINES” (BAYER PHARMA AKTIENGESELLSCHAFT, priority 2013, published 2016)

What was measured:
BRD4 (BD1) = target: T1, BRD4 (BD1) (Homo sapiens, UniProt O60885); experiment: Binding assay BRD4/acetylated peptide H4 (TR-FRET protein-protein interaction assay); settings: BRD4 (BD1) / acetylated histone H4 peptide
T1 construct: longer constructs also being possible, preferably amino acids 44-168; made in house; host or cells: E. coli
Source text: To assess the BRD4 binding strength of the substances described in this application, the ability thereof to inhibit the interaction between BRD4 (BD1) and acetylated histone H4 in a dose-dependent manner was quantified.
For this purpose, a time-resolved fluorescence resonance energy transfer (TR-FRET) assay was used, which measures the binding between N-terminally His6-tagged BRD4 (BD1) (amino acids 67-152, longer constructs also being possible, preferably amino acids 44-168) and a synthetic acetylated histone H4 (Ac—H4) peptide with sequence GRGK(Ac)GGK(Ac)GLGK(Ac)GGAK(Ac)RHGSGSK-biotin. The recombinant BRD4 protein produced in-house according to Filippakopoulos et al., Nature, 2010, 468:1119-1123 was expressed in E. coli and purified by means of (Ni-NTA) affinity and (Sephadex G-75) size exclusion chromatography. The Ac—H4 peptide can be purchased, for example, from Biosyntan (Berlin, Germany).
In the assay, typically 11 different concentrations of each substance (0.1 nM, 0.33 nM, 1.1 nM, 3.8 nM, 13 nM, 44 nM, 0.15 μM, 0.51 μM, 1.7 μM, 5.9 μM and 20 μM) were analysed as duplicates on the same microtitre plate. For this purpose, 100-fold concentrated solutions in DMSO were prepared by serial dilutions (1:3.4) of a 2 mM stock solution into a clear, 384-well microtitre plate (Greiner Bio-One, Frickenhausen, Germany). From this, 50 nl were transferred into a black test plate (Greiner Bio-One, Frickenhausen, Germany). The test was started by the addition of 2 μl of a 2.5-fold concentrated BRD4 solution (final concentration typically 10 nM in the 5 μl of reaction volume) in aqueous assay buffer [50 mM HEPES pH 7.5, 50 mM sodium chloride (NaCl), 0.25 mM CHAPS and 0.05% serum albumin (BSA)] to the substances in the test plate. This was followed by a 10-minute incubation step at 22° C. for the pre-equilibration of putative complexes between BRD4 and the substances.
The mixture was then incubated in the dark at 22° C. for one hour and then at 4° C. for at least 3 hours and for no longer than overnight. The formation of BRD4/Ac—H4 complexes was determined by the measurement of the resonance energy transfer from the streptavidin-Eu cryptate to the anti-6His-XL665 antibody present in the reaction. For this purpose, the fluorescence emission was measured at 620 nm and 665 nm after excitation at 330-350 nm in a TR-FRET measuring instrument, for example a Rubystar or Pherastar (both from BMG Lab Technologies, Offenburg, Germany) or a Viewlux (Perkin-Elmer). The ratio of the emissions at 665 nm and at […] was taken as an indicator of the amount of BRD4/Ac—H4 complexes formed.
The data (ratios) obtained were normalized, with 0% inhibition corresponding to the mean from the measurements for a set of controls (typically 32 data points) in which all the reagents were present. In these, in place of test substances, 50 nl of DMSO (100%) were used. Inhibition of 100% corresponded to the mean from the measurements for a set of controls (typically 32 data points) in which all the reagents except BRD4 were present. The IC50 was determined by regression analysis based on a 4-parameter equation (minimum, maximum, IC50, Hill; Y=max+(min−max)/(1+(X/IC50)^Hill)).

MOLM-13 cells = experiment: Cell proliferation assay (alamarBlue), MOLM-13; format: cell-based; settings: Homo sapiens, MOLM-13; acute myeloid leukaemia cell line, 96 h incubation
Method: (§1) In accordance with the invention, the ability of the substances to inhibit cell proliferation was determined. Cell viability was determined by means of the alamarBlue® reagent (Invitrogen) in a Victor X3 Multilabel Reader (Perkin Elmer). The excitation wavelength was 530 nm and the emission wavelength […].
The MOLM-13 cells (DSMZ, ACC 554) were sown at a concentration of 4000 cells/well in 100 μl of growth medium (RPMI1640, 10% FCS) on 96-well microtitre plates.
(§2) The MDA-MB-231 cells (DSMZ, ACC 732) were sown at a concentration of 4000 cells/well in 100 μl of growth medium (DMEM/Ham's F12 medium, 10% FCS) on 96-well microtitre plates. After overnight incubation at 37° C., the fluorescence values (CI values) were determined. Then the plates were treated with various substance dilutions (1E-5 M, 3E-6 M, 1E-6 M, 3E-7 M, 1E-7 M, 3E-8 M, 1E-8 M) and incubated at 37° C. for 72 (MV4-11, LOX-IMVI cells), 96 (MOLM-13, B16F10, […] cells), 120 (MOLP-8, KMS-12-PE cells) or 168 (LAPC-4 cells) hours. Subsequently, the fluorescence values were determined (CO values). For the data analysis, the CI values were subtracted from the CO values and the results were compared between cells which had been treated with various dilutions of the substance or only with buffer solution. This was used to calculate the IC50 values (substance concentration required for 50% inhibition of cell proliferation).
(§3) The substances were examined in the cell lines of Table 1 which, in an exemplary manner, represent the stated indications: […]

B16F10 cells = experiment: Cell proliferation assay (alamarBlue), B16F10; format: cell-based; settings: Mus musculus, B16-F10; melanoma (BRAF wild-type) cell line, 96 h incubation
Method: as §1
The B16F10 cells (ATCC, CRL-6475) were sown at a concentration of 300-500 cells/well in 100 μl of growth medium (DMEM with phenol red, 10% FCS) on 96-well microtitre plates.
as §2, §3

MOLP-8 cells = experiment: Cell proliferation assay (alamarBlue), MOLP-8; format: cell-based; settings: Homo sapiens, MOLP-8; multiple myeloma cell line, 120 h incubation
Method: as §1
The MOLP-8 cells (DSMZ, ACC 569) were sown at a concentration of 4000 cells/well in 100 μl of growth medium (RPMI1640, 20% FCS) on 96-well microtitre plates.
as §2, §3

Q: Which IC50 (BRD4 (BD1)) does the source give for `CNC(=O)N1N=C(c2ccc(N3CC4(CN(C(=O)OC(C)(C)C)C4)C3)cc2)c2cc(OC)c(OC)cc2CC1C` (racemic) [Example 8, tert-butyl 6-{4-[(±)-7,8-dimethoxy-4-methyl-3-(methylcarbamoyl)-4,5-dihydro-3H-2,3-benzodiazepine-1-yl]phenyl}-2,6-diazaspiro[3.3]heptane-2-carboxylate] here?
A: 0.14 µM

Q: And the IC50 (MOLM-13 cells)?
A: 0.26 µM

Q: And the IC50 (B16F10 cells)?
A: 0.18 µM

Q: What about the IC50 (MOLP-8 cells) of the same molecule?
A: 0.16 µM

Q: What does the source list for `CNC(=O)N1N=C(c2ccc(N3CCC4(CCCC4)CC3)cc2)c2cc(OC)c(OC)cc2CC1C` (racemic) [Example 9, (±)-1-[4-(8-azaspiro[4.5]dec-8-yl)phenyl]-7,8-dimethoxy-N,4-dimethyl-4,5-dihydro-3H-2,3-benzodiazepine-3-carboxamide]?
A: IC50 (BRD4 (BD1)): 0.25 µM; IC50 (MOLM-13 cells): 0.5 µM; IC50 (B16F10 cells): 0.14 µM; IC50 (MOLP-8 cells): 0.46 µM

Q: What does the source list for `CNC(=O)N1N=C(c2ccc(N3CC4(CN(Cc5ccccc5)C4)C3)cc2)c2cc(OC)c(OC)cc2CC1C` (racemic) [Example 10, (±)-1-[4-(6-benzyl-2,6-diazaspiro[3.3]hept-2-yl)phenyl]-7,8-dimethoxy-N,4-dimethyl-4,5-dihydro-3H-2,3-benzodiazepine-3-carboxamide]?
A: IC50 (BRD4 (BD1)): 0.08 µM; IC50 (MOLM-13 cells): 0.15 µM; IC50 (B16F10 cells): 0.15 µM; IC50 (MOLP-8 cells): 0.08 µM

Q: Which results are given for `CNC(=O)N1N=C(c2ccc(N3CCCC4(COC4)C3)cc2)c2cc(OC)c(OC)cc2CC1C` (racemic) [Example 11, (±)-7,8-dimethoxy-N,4-dimethyl-1-[4-(2-oxa-6-azaspiro[3.5]non-6-yl)phenyl]-4,5-dihydro-3H-2,3-benzodiazepine-3-carboxamide]?
A: IC50 (BRD4 (BD1)): 0.06 µM; IC50 (MOLM-13 cells): 0.16 µM; IC50 (B16F10 cells): 0.1 µM; IC50 (MOLP-8 cells): 0.1 µM

Q: How did the IC50 (BRD4 (BD1)) turn out when `CNC(=O)N1N=C(c2ccc(N3CCC4(CC3)COC4)cc2)c2cc(OC)c(OC)cc2CC1C` (racemic) [Example 12, (±)-7,8-dimethoxy-N,4-dimethyl-1-[4-(2-oxa-7-azaspiro[3.5]non-7-yl)phenyl]-4,5-dihydro-3H-2,3-benzodiazepine-3-carboxamide] was run?
A: 0.08 µM

Q: And the IC50 (MOLM-13 cells)?
A: 0.22 µM

Q: What about the IC50 (B16F10 cells) of the same molecule?
A: 0.17 µM

Q: What about the IC50 (MOLP-8 cells) of the same molecule?
A: 0.14 µM

Q: With `CNC(=O)N1N=C(c2cccc(N3CC4(CCS4(=O)=O)C3)c2)c2cc(OC)c(OC)cc2CC1C` (racemic) [Example 14, 1-[3-(1,1-dioxido-1-thia-6-azaspiro[3.3]hept-6-yl)phenyl]-7,8-dimethoxy-N,4-dimethyl-4,5-dihydro-3H-2,3-benzodiazepine-3-carboxamide] as the molecule, how does the IC50 (BRD4 (BD1)) read?
A: 0.17 µM

Q: What about the IC50 (MOLM-13 cells) of the same molecule?
A: 0.33 µM

Q: What about the IC50 (B16F10 cells) of the same molecule?
A: 0.26 µM

Q: And the IC50 (MOLP-8 cells)?
A: 0.24 µM

Q: Which results are given for `CNC(=O)N1N=C(c2ccc(F)c(N3CC4(CCS4(=O)=O)C3)c2)c2cc(OC)c(OC)cc2CC1C` (racemic) [Example 15, (±)-1-[3-(1,1-dioxido-1-thia-6-azaspiro[3.3]hept-6-yl)-4-fluorophenyl]-7,8-dimethoxy-N,4-dimethyl-4,5-dihydro-3H-2,3-benzodiazepine-3-carboxamide]?
A: IC50 (BRD4 (BD1)): 0.25 µM; IC50 (MOLM-13 cells): 0.6 µM; IC50 (B16F10 cells): 0.59 µM; IC50 (MOLP-8 cells): 0.48 µM

Q: With `CNC(=O)N1N=C(c2ccc(N3CC4(CCS4(=O)=O)C3)cc2)c2cc(OC(F)(F)F)ccc2CC1C` (racemic) [Example 18, (±)-1-[4-(1,1-dioxido-1-thia-6-azaspiro[3.3]hept-6-yl)phenyl]-N,4-dimethyl-8-(trifluoromethoxy)-4,5-dihydro-3H-2,3-benzodiazepine-3-carboxamide] as the molecule, how does the IC50 (BRD4 (BD1)) read?
A: 0.04 µM

Q: What about the IC50 (MOLM-13 cells) of the same molecule?
A: 0.07 µM

Q: What about the IC50 (B16F10 cells) of the same molecule?
A: 0.06 µM

Q: And the IC50 (MOLP-8 cells)?
A: 0.06 µM

Q: How did the IC50 (BRD4 (BD1)) turn out when `CNC(=O)N1N=C(c2ccc(N3CCN4CCCC4C3)cc2)c2cc(OC)c(OC)cc2CC1C` (racemic) [Example 30, (±)-1-[4-(hexahydropyrrolo[1,2-a]pyrazin-2(1H)-yl)phenyl]-7,8-dimethoxy-N,4-dimethyl-4,5-dihydro-3H-2,3-benzodiazepine-3-carboxamide] was run?
A: 0.07 µM

Q: What about the IC50 (MOLM-13 cells) of the same molecule?
A: 0.2 µM

Q: And the IC50 (MOLP-8 cells)?
A: 0.09 µM

Q: For `CNC(=O)N1N=C(c2ccc(N3C[C@H]4CN(C)C[C@H]4C3)cc2)c2cc(OC)c(OC)cc2CC1C` (mixture of isomers) [Example 33, (±)-7,8-dimethoxy-N,4-dimethyl-1-{4-[(3aR,6aS)-5-methylhexahydropyrrolo[3,4-c]pyrrol-2(1H)-yl]phenyl}-4,5-dihydro-3H-2,3-benzodiazepine-3-carboxamide], which IC50 (BRD4 (BD1)) is on record?
A: 0.09 µM

Q: What about the IC50 (MOLM-13 cells) of the same molecule?
A: 0.22 µM

Q: And the IC50 (MOLP-8 cells)?
A: 0.11 µM

Q: How did the IC50 (BRD4 (BD1)) turn out when `CNC(=O)N1N=C(c2ccc(N3C[C@H]4CC[C@@H](C3)O4)cc2)c2cc(OC)c(OC)cc2C[C@H]1C` [Example 4.1, (4R)-7,8-dimethoxy-N,4-dimethyl-1-[4-(8-oxa-3-azabicyclo[3.2.1]oct-3-yl)phenyl]-4,5-dihydro-3H-2,3-benzodiazepine-3-carboxamide] was run?
A: 1.85 µM

Q: And the IC50 (MOLM-13 cells)?
A: 6.09 µM

Q: How did the IC50 (BRD4 (BD1)) turn out when `CNC(=O)N1N=C(c2ccc(N3CC4(COC4)C3)cc2)c2cc(OC)c(OC)cc2C[C@@H]1C` [Example 5.1, (4S)-7,8-dimethoxy-N,4-dimethyl-1-[4-(2-oxa-6-azaspiro[3.3]hept-6-yl)phenyl]-4,5-dihydro-3H-2,3-benzodiazepine-3-carboxamide] was run?
A: 0.02 µM

Q: And the IC50 (MOLM-13 cells)?
A: 0.11 µM

Q: `CNC(=O)N1N=C(c2ccc(N3[C@@H]4CC[C@H]3CC(=O)C4)cc2)c2cc(OC)c(OC)cc2C[C@H]1C` [Example 6.1, (4R)-7,8-dimethoxy-N,4 dimethyl-1-[4-(3-oxo-8-azabicyclo[3.2.1]oct-8-yl)phenyl]-4,5-dihydro-3H-2,3-benzodiazepine-3-carboxamide] was tested. Which IC50 (BRD4 (BD1)) did it give?
A: 1.23 µM

Q: What about the IC50 (MOLM-13 cells) of the same molecule?
A: 0.45 µM

Q: How did the IC50 (BRD4 (BD1)) turn out when `CNC(=O)N1N=C(c2ccc(N3[C@@H]4CC[C@H]3CC(=O)C4)cc2)c2cc(OC)c(OC)cc2C[C@@H]1C` [Example 6.2, (4S)-7,8-dimethoxy-N,4-dimethyl-1-[4-(3-oxo-8-azabicyclo[3.2.1]oct-8-yl)phenyl]-4,5-dihydro-3H-2,3-benzodiazepine-3-carboxamide] was run?
A: 0.02 µM

Q: What about the IC50 (MOLM-13 cells) of the same molecule?
A: 0.05 µM
